Tests used:
Type in all cases: biochemical
[1] = biological target: T1, human GST-DYRK1A (full length) (Homo sapiens, UniProt Q13627); experiment: GST-DYRK1A enzyme inhibition, ADP-Glo kinase assay; conditions: read-out: DYRK1 IC50
T1 construct: purified human GST-DYRK1A (full length, Thermo scientifics) enzyme; GST; purchased Thermo scientifics
In short: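 Full-length human GST-DYRK1A (10 ng) incubated with 10 uM ATP and specific substrate for 1 h at 25° C in 40 mM Tris-HCl pH 7.4, 20 mM MgCl2, 0.5 mg/mL BSA, 50 uM DTT. ADP formation read by ADP-Glo luminescence; IC50 (nM) versus solvent control, triplicate.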

human GST-CLK1 (129-end) = biological target: T2, human GST-CLK1 (129-end) (Homo sapiens, UniProt P49759); experiment: GST-CLK1 enzyme inhibition, ADP-Glo kinase assay; conditions: ATP 10 uM
T2 construct: purified human GST-CLK1 (129-end, Signalchem) enzyme; GST; purchased Signalchem
In short: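 GST-CLK1 (129-end, 3 ng) reacted with 10 uM ATP and substrate in 40 mM Tris-HCl pH 7.4, 20 mM MgCl2, 0.5 mg/mL BSA, 50 uM DTT, 1 h at 25° C. ADP-Glo luminescence normalised to solvent control; IC50 from triplicate data.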

LRRK2 = LRRK2 (Homo sapiens, UniProt Q5S007); experiment: LRRK2 enzyme inhibition, ADP-Glo kinase assay; design: purchased Invitrogen PR8604B
Method: In order to evaluate the inhibitory activity of the compounds according to the present invention on LRRK2, LRRK2 (G2019S), DYRK1, CLK1 and TTK kinases, the following experiment was performed.
Example compounds were reacted with the purified human LRRK2 (Invitrogen #PR8604B) enzyme to evaluate the enzyme inhibitory ability as follows. The reaction buffer was used as the composition of 40 mM Tris-HCl pH7.4, 20 mM MgCl2, 0.5 mg/ml BSA and 50 μM DTT, and the reaction of all test materials was performed on the reaction buffer. The compound was diluted with 10 mM DMSO stock in 12 steps by a serial dilution method, and the enzyme activity was measured at the final compound concentrations of 50, 10, 2, 0.4, 0.08, 0.016, 0.0032, 0.00064, 0.000128, 0.0000256, 0.00000512 and 0.000001024 μM. In the test, the human LRRK2 (25 ng) enzyme was reacted with the purified ATP (10 μM) and an enzyme substrate ([…]) at 25° C. for 2 hours, and then the enzyme activity was identified using the in vitro ADP-Glo™ kinase assay (promega). The enzyme activity reaction liquid, an ADP-Glo reaction liquid and an enzyme potency detection solution were reacted in a ratio of 2:2:1, and the degree of inhibition of enzyme activity was measured by Luminescence. The degree of inhibition of enzyme activity according to the treatment concentrations of the respective compounds was calculated based on the fluorescence of the enzyme activity of a solvent control group that was not treated with the compound, where the concentration of each compound to inhibit enzyme activity inhibition by 50% was determined as an IC50 (nM) value and obtained using Prism (Version 5.01, GraphPad) software.
In the table below, the following designations were used for the evaluation of enzyme inhibitory ability.

LRRK2 (G2019S) = LRRK2 (G2019S) (Homo sapiens, UniProt Q5S007, G2019S); experiment: LRRK2 G2019S enzyme inhibition, ADP-Glo kinase assay; design: purchased SignalChem L10-12GG
In short: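 Purified human LRRK2 G2019S (16 ng) with 25 μM ATP and 0.2 μg substrate, 2 h at 25° C in 40 mM Tris-HCl pH 7.4, 20 mM MgCl2, 0.5 mg/ml BSA, 50 μM DTT; compound at 12 final concentrations from 50 μM downward. ADP-Glo luminescence versus solvent control gave IC50 (nM).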

LRRK2, sequence (Q5S007 970-2527 limits assumed): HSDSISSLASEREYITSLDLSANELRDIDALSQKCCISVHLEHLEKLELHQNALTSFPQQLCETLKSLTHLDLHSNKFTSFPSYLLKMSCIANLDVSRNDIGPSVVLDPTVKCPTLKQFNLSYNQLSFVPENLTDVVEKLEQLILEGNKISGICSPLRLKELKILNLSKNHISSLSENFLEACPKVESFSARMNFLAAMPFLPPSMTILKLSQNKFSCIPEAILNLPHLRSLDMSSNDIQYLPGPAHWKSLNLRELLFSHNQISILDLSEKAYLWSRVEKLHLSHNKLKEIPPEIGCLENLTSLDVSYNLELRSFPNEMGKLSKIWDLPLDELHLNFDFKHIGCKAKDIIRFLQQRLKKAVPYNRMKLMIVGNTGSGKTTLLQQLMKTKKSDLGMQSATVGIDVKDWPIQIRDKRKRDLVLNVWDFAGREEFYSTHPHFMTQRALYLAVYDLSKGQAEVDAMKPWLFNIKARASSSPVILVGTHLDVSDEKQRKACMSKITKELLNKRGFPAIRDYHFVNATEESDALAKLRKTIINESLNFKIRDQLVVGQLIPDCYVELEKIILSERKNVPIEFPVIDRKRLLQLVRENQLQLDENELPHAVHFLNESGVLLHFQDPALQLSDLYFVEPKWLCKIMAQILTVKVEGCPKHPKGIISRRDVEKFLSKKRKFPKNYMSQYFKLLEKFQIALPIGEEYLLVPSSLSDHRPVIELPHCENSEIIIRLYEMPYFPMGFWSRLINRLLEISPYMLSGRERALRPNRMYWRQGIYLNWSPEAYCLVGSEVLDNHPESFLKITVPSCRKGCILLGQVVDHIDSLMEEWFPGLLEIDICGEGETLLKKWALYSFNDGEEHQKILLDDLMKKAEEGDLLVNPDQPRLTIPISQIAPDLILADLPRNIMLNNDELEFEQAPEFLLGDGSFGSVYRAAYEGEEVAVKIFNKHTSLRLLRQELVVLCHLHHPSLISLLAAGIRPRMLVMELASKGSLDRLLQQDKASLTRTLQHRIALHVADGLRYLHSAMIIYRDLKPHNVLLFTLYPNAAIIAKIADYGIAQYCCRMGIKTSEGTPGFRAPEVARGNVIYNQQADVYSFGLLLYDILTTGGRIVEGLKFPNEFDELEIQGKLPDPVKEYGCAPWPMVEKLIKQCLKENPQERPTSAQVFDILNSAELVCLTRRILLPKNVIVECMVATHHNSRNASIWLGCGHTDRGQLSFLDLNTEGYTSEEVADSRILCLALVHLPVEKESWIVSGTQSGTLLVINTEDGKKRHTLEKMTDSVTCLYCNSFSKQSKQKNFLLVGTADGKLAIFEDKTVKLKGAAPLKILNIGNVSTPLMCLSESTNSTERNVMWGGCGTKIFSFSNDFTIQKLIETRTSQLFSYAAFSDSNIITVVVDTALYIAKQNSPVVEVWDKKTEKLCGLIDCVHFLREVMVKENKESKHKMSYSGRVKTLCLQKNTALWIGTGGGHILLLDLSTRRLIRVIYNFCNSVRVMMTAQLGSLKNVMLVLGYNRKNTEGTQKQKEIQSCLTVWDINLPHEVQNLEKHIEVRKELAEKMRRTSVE
T2 sequence (P49759 129-484 limits assumed): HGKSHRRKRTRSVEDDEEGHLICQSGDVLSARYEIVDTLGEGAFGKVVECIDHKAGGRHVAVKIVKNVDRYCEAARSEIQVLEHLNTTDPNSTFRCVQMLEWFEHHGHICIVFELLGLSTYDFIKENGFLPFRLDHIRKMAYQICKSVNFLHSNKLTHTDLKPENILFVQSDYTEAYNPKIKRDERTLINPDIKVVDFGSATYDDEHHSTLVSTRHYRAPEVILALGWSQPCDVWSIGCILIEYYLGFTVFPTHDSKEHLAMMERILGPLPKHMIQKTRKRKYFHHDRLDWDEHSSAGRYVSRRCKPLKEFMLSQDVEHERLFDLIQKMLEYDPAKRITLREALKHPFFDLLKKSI
LRRK2 (G2019S), sequence (Q5S007 970-2527 G2019S limits assumed): as the sequence (Q5S007 970-2527 limits assumed) above, with G1050S counted along it

With `COc1cc(P2(=O)CCN(C3CC3)CC2)ccc1Nc1cc(C2CC2)c2c(C(F)(F)F)c[nH]c2n1` [Example 218, 1-cyclopropyl-4-(4-((4-cyclopropyl-3-(trifluoromethyl)-1H-pyrrolo[2,3-b]pyridin-6-yl)amino)-3-methoxyphenyl)-1,4-azaphosphinane 4-oxide] as the compound, how does the IC50 [1] read?
The IC50 was 301 to 1000 nM.

What about the IC50 (human GST-CLK1 (129-end)) of the same compound?
The IC50 was 301 to 1000 nM.

What about the IC50 (LRRK2) of the same compound?
Its IC50 is < 100 nM.

How did the IC50 [1] turn out when `CCOc1cc(Nc2ccc(C(=O)N3CCOCC3)c3c2OCCO3)nc2[nH]cc(C(F)(F)F)c12` [Example 231, (8-((4-ethoxy-3-(trifluoromethyl)-1H-pyrrolo[2,3-b]pyridin-6-yl)amino)-2,3-dihydrobenzo[b] [1,4]dioxin-5-yl)(morpholino) methanone] was run?
Its IC50 is 301 to 1000 nM.

And the IC50 (human GST-CLK1 (129-end))?
The IC50 was 301 to 1000 nM.

And the IC50 (LRRK2)?
The IC50 was < 100 nM.

How did the IC50 [1] turn out when `CNc1cc(Nc2ccc(S(C)(=N)=O)cc2OC)nc2[nH]cc(C(F)(F)F)c12` (stereo not drawn) [Example 103, N^6-(2-methoxy-4-(s-methylsulfonylimidoyl)phenyl)-N^4-methyl-3-(trifluoromethyl)-1H-pyrrolo[2,3-b]pyridine-4,6-diamine] was run?
Its IC50 is 301 to 1000 nM.

And the IC50 (human GST-CLK1 (129-end))?
The IC50 was 301 to 1000 nM.

And the IC50 (LRRK2)?
Its IC50 is 101 to 300 nM.

`CCN(C)c1cc(Nc2ccc(C(=O)N3CCC(N4CCOCC4)CC3)c3c2OCCO3)nc2[nH]cc(C(F)(F)F)c12` [Example 51, (8-((4-(ethyl(methyl)amino)-3-(trifluoromethyl)-1H-pyrrolo[2,3-b]pyridin-6-yl)amino)-2,3-dihydrobenzo [b] [1,4]dioxin-5-yl)(4-morpholinopiperidin-1-yl)methanone] was tested. Which IC50 [1] did it give?
The IC50 was 301 to 1000 nM.

And the IC50 (human GST-CLK1 (129-end))?
The IC50 was 101 to 300 nM.

And the IC50 (LRRK2)?
Its IC50 is 101 to 300 nM.

How did the IC50 [1] turn out when `CCNc1cc(Nc2ccc(P3(=O)CCN(C4COC4)CC3)cc2OC)nc2[nH]cc(C#N)c12` [Example 143, 4-(ethylamino)-6-((2-methoxy-4-(1-(oxetan-3-yl)-4-oxido-1,4-azaphosphinan-4-yl)phenyl)amino)-1H-pyrrolo[2,3-b]pyridine-3-carbonitrile] was run?
Its IC50 is 301 to 1000 nM.

What about the IC50 (human GST-CLK1 (129-end)) of the same compound?
Its IC50 is 101 to 300 nM.

And the IC50 (LRRK2)?
Its IC50 is < 100 nM.

Which IC50 [1] does the source give for `COc1cc(S(C)(=O)=O)ccc1Nc1cc(NC2CCC2)c2c(C(F)(F)F)c[nH]c2n1` [Example 204, N^4-cyclobutyl-N^6-(2-methoxy-4-(methylsulfonyl)phenyl)-3-(trifluoromethyl)-1H-pyrrolo[2,3-b]pyridine-4,6-diamine] here?
The IC50 was 301 to 1000 nM.

What about the IC50 (human GST-CLK1 (129-end)) of the same compound?
The IC50 was 301 to 1000 nM.

What about the IC50 (LRRK2) of the same compound?
The IC50 was 301 to 1000 nM.

What does the source list for `CN(C)CCNc1cc(Nc2ccc(C(=O)N3CCC(N4CCOCC4)CC3)c3c2OCCO3)nc2[nH]cc(C(F)(F)F)c12` [Example 172, (8-((4-((2-(dimethylamino)ethyl)amino)-3-(trifluoromethyl)-1H-pyrrolo[2,3-b]pyridin-6-yl)amino)-2,3-dihydrobenzo[b] [1,4]dioxin-5-yl)(4-morpholinopiperidin-1-yl)methanone]?
IC50 [1]: 301 to 1000 nM; IC50 (human GST-CLK1 (129-end)): 101 to 300 nM; IC50 (LRRK2): < 100 nM

Which IC50 [1] does the source give for `COc1cc(P2(=O)CCN(C3CC3)CC2)ccc1Nc1cc(NC2CCC2)c2c(C(F)(F)F)c[nH]c2n1` [Example 46, 4-(4-((4-(cyclobutylamino)-3-(trifluoromethyl)-1H-pyrrolo[2,3-b]pyridin-6-yl)amino)-3-methoxyphenyl)-1-cyclopropyl-1,4-azaphosphinane 4-oxide] here?
Its IC50 is 301 to 1000 nM.

What about the IC50 (human GST-CLK1 (129-end)) of the same compound?
Its IC50 is 301 to 1000 nM.

What about the IC50 (LRRK2) of the same compound?
The IC50 was 301 to 1000 nM.

Which results are given for `COc1cc(P2(=O)CCN(C3CC3)CC2)ccc1Nc1cc(NC2CC2)c2c(C(F)(F)F)c[nH]c2n1` [Example 211, 1-cyclopropyl-4-(4-((4-(cyclopropylamino)-3-(trifluoromethyl)-1H-pyrrolo[2,3-b]pyridin-6-yl)amino)-3-methoxyphenyl)-1,4-azaphosphinane 4-oxide]?
IC50 [1]: 301 to 1000 nM; IC50 (human GST-CLK1 (129-end)): 301 to 1000 nM; IC50 (LRRK2): < 100 nM

Which IC50 [1] does the source give for `CCNc1cc(Nc2ccc(C(=O)N3CCC4(CC3)CC4)c3c2OCC3)nc2[nH]cc(C(F)(F)F)c12` [Example 256, (7-((4-(ethylamino)-3-(trifluoromethyl)-1H-pyrrolo[2,3-b]pyridin-6-yl)amino)-2,3-dihydrobenzofuran-4-yl)(6-azaspiro[2.5]octan-6-yl)methanone] here?
Its IC50 is 301 to 1000 nM.

And the IC50 (human GST-CLK1 (129-end))?
Its IC50 is 101 to 300 nM.

What about the IC50 (LRRK2 (G2019S)) of the same compound?
The IC50 was 301 to 1000 nM.

Reference: patent US12240844B2 (Voronoi, Inc., priority 2019, dated 2025)
